Source: US20260028365A1 (BIOGEN MA INC., priority 2022, published 2026)
Read-outs that look alike come from different tables or passages of the source.

Experiments:
JH2 domain of human Tyk2 = JH2 domain of human Tyk2 (Homo sapiens (Human), UniProt P29597); assay: JH2 Biochemical Assay (TR-FRET probe displacement); format: binding
Tyk2 = Tyk2 (Homo sapiens (Human), UniProt P29597); assay: pSTAT4 Cell Assay (MSD, NK92 cells); format: cell-based
[1] = TR-FRET probe displacement, JH2 domain of human Tyk2
[2] = JH2 domain of human Tyk2, TR-FRET probe displacement
[3] = TR-FRET probe displacement, JH2 domain

Sequence of Tyk2 (P29597 whole entry, the tested form may be a part): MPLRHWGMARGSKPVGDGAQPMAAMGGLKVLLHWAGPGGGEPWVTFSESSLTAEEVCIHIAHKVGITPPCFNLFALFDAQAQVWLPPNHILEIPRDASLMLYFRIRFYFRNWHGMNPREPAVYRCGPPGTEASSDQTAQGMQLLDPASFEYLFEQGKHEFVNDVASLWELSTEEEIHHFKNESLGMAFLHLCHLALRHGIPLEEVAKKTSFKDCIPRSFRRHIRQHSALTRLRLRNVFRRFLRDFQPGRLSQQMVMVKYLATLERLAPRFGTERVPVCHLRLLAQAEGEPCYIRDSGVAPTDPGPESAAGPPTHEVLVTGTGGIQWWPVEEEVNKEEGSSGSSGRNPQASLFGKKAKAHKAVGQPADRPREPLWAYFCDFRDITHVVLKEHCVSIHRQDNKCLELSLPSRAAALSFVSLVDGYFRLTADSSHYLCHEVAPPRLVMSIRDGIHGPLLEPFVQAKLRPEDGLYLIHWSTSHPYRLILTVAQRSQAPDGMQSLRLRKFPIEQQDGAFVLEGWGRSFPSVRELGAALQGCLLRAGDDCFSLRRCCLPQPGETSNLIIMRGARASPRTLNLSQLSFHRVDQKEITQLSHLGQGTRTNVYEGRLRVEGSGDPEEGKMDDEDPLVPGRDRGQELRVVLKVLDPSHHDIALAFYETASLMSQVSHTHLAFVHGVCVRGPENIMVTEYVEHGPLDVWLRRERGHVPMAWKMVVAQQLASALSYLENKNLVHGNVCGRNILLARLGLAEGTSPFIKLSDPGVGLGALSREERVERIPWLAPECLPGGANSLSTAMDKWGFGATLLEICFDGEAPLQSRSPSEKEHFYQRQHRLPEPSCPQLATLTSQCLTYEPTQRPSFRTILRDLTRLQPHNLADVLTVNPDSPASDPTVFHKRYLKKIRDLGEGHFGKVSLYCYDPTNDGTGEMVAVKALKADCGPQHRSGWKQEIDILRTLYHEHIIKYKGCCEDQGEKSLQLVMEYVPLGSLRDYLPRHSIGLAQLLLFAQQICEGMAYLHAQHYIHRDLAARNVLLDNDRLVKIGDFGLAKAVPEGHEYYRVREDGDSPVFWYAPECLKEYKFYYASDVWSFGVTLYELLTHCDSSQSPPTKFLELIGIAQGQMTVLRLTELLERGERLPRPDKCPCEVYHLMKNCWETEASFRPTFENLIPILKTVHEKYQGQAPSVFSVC
Sequence of JH2 domain of human Tyk2 (P29597 575-876): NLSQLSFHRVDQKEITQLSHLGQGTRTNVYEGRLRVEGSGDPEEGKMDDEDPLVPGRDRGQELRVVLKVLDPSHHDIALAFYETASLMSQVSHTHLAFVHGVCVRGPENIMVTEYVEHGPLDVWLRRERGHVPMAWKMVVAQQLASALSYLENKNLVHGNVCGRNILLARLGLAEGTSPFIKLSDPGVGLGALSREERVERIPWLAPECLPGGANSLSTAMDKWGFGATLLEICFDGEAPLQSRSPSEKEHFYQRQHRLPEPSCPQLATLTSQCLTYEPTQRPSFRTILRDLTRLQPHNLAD

Row | SMILES | IC50 (JH2 domain of human Tyk2; [1]) | IC50 (Tyk2; MSD) | IC50 (JH2 domain of human Tyk2; [2]) | IC50 (JH2 domain of human Tyk2; [3]) | IC50 (Tyk2)
1 | CC(=O)Nc1cc(Nc2cc(C)nc(C(C)(F)F)n2)c(OCCCF)cn1 [Example 295, N-(4-((2-(1,1-difluoroethyl)-6-methylpyrimidin-4-yl)amino)-5-(3-fluoropropoxy)pyridin-2-yl)acetamide] | ≤ 10 nM | 10 to 100 nM | – | – | –
2 | CC(=O)Nc1cc(Nc2cc(C)nc(C(C)(F)F)n2)c(OCC2(F)COC2)cn1 [Example 483, N-(4-((2-(1,1-difluoroethyl)-6-methylpyrimidin-4-yl)amino)-5-((3-fluorooxetan-3-yl)methoxy)pyridin-2-yl)acetamide] | – | 10 to 100 nM | ≤ 10 nM | – | –
3 | COC1(COc2cnc(NC(C)=O)cc2Nc2cc(C)nc(C(C)(F)F)n2)CCC1 [Example 493, N-(4-((2-(1,1-difluoroethyl)-6-methylpyrimidin-4-yl)amino)-5-((1-methoxycyclobutyl)methoxy)pyridin-2-yl)acetamide] | – | 10 to 100 nM | ≤ 10 nM | – | –
4 | CCc1nnc(-c2cnc(NC(C)=O)cc2Nc2ccnc(C(C)(F)F)n2)s1 [Example 714, N-(4-((2-(1,1-difluoroethyl)pyrimidin-4-yl)amino)-5-(5-ethyl-1,3,4-thiadiazol-2-yl)pyridin-2-yl)acetamide] | – | ≤ 10 nM | ≤ 10 nM | – | –
5 | CC(=O)Nc1cc(Nc2cncc(C(C)(C)F)n2)c(-c2ncc(F)cn2)cn1 [Example 189, N-(4-((6-(2-fluoropropan-2-yl)pyrazin-2-yl)amino)-5-(5-fluoropyrimidin-2-yl)pyridin-2-yl)acetamide] | 10 to 100 nM | 10 to 100 nM | – | – | –
6 | CC(=O)Nc1cc(Nc2cc(C)nc(C(C)(F)F)n2)c(OC[C@H]2CCC[C@@H](C)O2)cn1 (stereo in doubt) [Example 418, Cis-rac-N-(4-((2-(1,1-difluoroethyl)-6-methylpyrimidin-4-yl)amino)-5-(((2R,6R)-6-methyltetrahydro-2H-pyran-2-yl)methoxy)pyridin-2-yl)acetamide] | – | ≤ 10 nM | ≤ 10 nM | – | –
7 | CCc1cc(Nc2cc(NC(C)=O)ncc2-c2ccc(C#N)cn2)nc(C(C)(F)F)n1 [Example 583, N-(5-cyanO4′-((2-(1,1-difluoroethyl)-6-ethylpyrimidin-4-yl)amino)-[2,3′-bipyridin]-6′-yl)acetamide] | – | ≤ 10 nM | ≤ 10 nM | – | –
8 | CC(=O)Nc1cc(Nc2cc(C)nc(C(C)(F)F)n2)c(-c2cc(F)n(C)n2)cn1 [Example 814, N-(4-((2-(1,1-difluoroethyl)-6-methylpyrimidin-4-yl)amino)-5-(5-fluoro-1-methyl-1H-pyrazol-3-yl)pyridin-2-yl)acetamide] | – | – | – | ≤ 10 nM | ≤ 10 nM
9 | COc1cnnc(-c2cnc(NC(C)=O)cc2Nc2cc(C)nc(C(C)(F)F)n2)c1 [Example 753, N-(4-((2-(1,1-difluoroethyl)-6-methylpyrimidin-4-yl)amino)-5-(5-methoxypyridazin-3-yl)pyridin-2-yl)acetamide] | – | – | – | ≤ 10 nM | ≥ 1000 nM
10 | CCc1cc(Nc2cc(NC(C)=O)ncc2-c2ccc(=O)[nH]n2)nc(C(C)(F)F)n1 [Example 221, N-(4-((2-(1,1-difluoroethyl)-6-ethylpyrimidin-4-yl)amino)-5-(6-oxo-1,6-dihydropyridazin-3-yl)pyridin-2-yl)acetamide] | 10 to 100 nM | ≥ 1000 nM | – | – | –
11 | CCOc1cnc(NC(C)=O)cc1Nc1cc(NC)nc(C(C)(F)F)n1 [Example 485, N-(4-((2-(1,1-difluoroethyl)-6-(methylamino)pyrimidin-4-yl)amino)-5-ethoxypyridin-2-yl)acetamide] | – | 10 to 100 nM | ≤ 10 nM | – | –
12 | CC(=O)Nc1cc(Nc2cc(C)nc(C(C)(F)F)n2)c(-c2ccc([C@H]3CN(C)CCO3)cn2)cn1 (single isomer, unassigned) [Example 644, (S)-N-(4′-((2-(1,1-difluoroethyl)-6-methylpyrimidin-4-yl)amino)-5-(4-methylmorpholin-2-yl)-[2,3′-bipyridin]-6′-yl)acetamide or (R)-N-(4′-((2-(1,1-difluoroethyl)-6-methylpyrimidin-4-yl)amino)-5-(4-methylmorpholin-2-yl)-[2,3′-bipyridin]-6′-yl)acetamide] | – | ≤ 10 nM | ≤ 10 nM | – | –
13 | CC(=O)Nc1cc(Nc2cc(C)nc(C(C)(F)F)n2)c(-c2cccc(F)n2)cn1 [Example 623, N-(4′-((2-(1,1-difluoroethyl)-6-methylpyrimidin-4-yl)amino)-6-fluorO[2,3′-bipyridin]-6′-yl)acetamide] | – | ≤ 10 nM | ≤ 10 nM | – | –
14 | CCOc1cnc(NC(C)=O)cc1Nc1cc(C(C)(F)F)ccn1 [Example 2, N-(4-((4-(1,1-difluoroethyl)pyridin-2-yl)amino)-5-ethoxypyridin-2-yl)acetamide] | 10 to 100 nM | ≥ 1000 nM | – | – | –
15 | CC(=O)Nc1cc(Nc2nccc(C(C)(F)F)n2)c(-c2ccn(C)n2)cn1 [Example 203, N-(4-((4-(1,1-difluoroethyl)pyrimidin-2-yl)amino)-5-(1-methyl-1H-pyrazol-3-yl)pyridin-2-yl)acetamide] | ≤ 10 nM | ≤ 10 nM | – | – | –
16 | CCOc1cnc(NC(C)=O)cc1Nc1cc(-c2cncc(OC)c2)nc(C(C)(F)F)n1 [Example 370, N-(4-((2-(1,1-difluoroethyl)-6-(5-methoxypyridin-3-yl)pyrimidin-4-yl)amino)-5-ethoxypyridin-2-yl)acetamide] | – | 10 to 100 nM | ≤ 10 nM | – | –
17 | CC(=O)Nc1cc(Nc2cc(C)nc(C(C)(F)F)n2)c(OCC(F)C(C)C)cn1 (stereo not drawn) [Example 429, N-(4-((2-(1,1-difluoroethyl)-6-methylpyrimidin-4-yl)amino)-5-(2-fluoro-3-methylbutoxy)pyridin-2-yl)acetamide] | – | 10 to 100 nM | ≤ 10 nM | – | –
18 | CC(=O)Nc1cc(Nc2cc(C)nc(C(C)(F)F)n2)c(OC[C@@H](C)OC(C)(C)C)cn1 [Example 321, (R)-N-(5-(2-(tert-butoxy)propoxy)-4-((2-(1,1-difluoroethyl)-6-methylpyrimidin-4-yl)amino)pyridin-2-yl)acetamide] | ≤ 10 nM | 10 to 100 nM | – | – | –
19 | CC(=O)Nc1cc(Nc2cc(C)nc(C(C)(F)F)n2)c(OCc2ncc(C)o2)cn1 [Example 341, N-(4-((2-(1,1-difluoroethyl)-6-methylpyrimidin-4-yl)amino)-5-((5-methyloxazol-2-yl)methoxy)pyridin-2-yl)acetamide] | ≤ 10 nM | 10 to 100 nM | – | – | –
20 | CC(=O)Nc1cc(Nc2cc(C)nc(C(C)(F)F)n2)c(-c2ccc([C@@H]3CN(C)CCO3)cn2)cn1 (single isomer, unassigned) [Example 643, (R)-N-(4′-((2-(1,1-difluoroethyl)-6-methylpyrimidin-4-yl)amino)-5-(4-methylmorpholin-2-yl)-[2,3′-bipyridin]-6′-yl)acetamide or (S)-N-(4′-((2-(1,1-difluoroethyl)-6-methylpyrimidin-4-yl)amino)-5-(4-methylmorpholin-2-yl)-[2,3′-bipyridin]-6′-yl)acetamide] | – | ≤ 10 nM | ≤ 10 nM | – | –
21 | CCOc1cnc(NC(C)=O)cc1Nc1cc(-c2cccnc2)nc(C(C)(F)F)n1 [Example 96, N-(4-((2-(1,1-difluoroethyl)-6-(pyridin-3-yl)pyrimidin-4-yl)amino)-5-ethoxypyridin-2-yl)acetamide] | ≤ 10 nM | 10 to 100 nM | – | – | –
